Assay results published in patent US8357703B2, “Pyridines” (Hoffmann-La Roche Inc., priority 2009, dated 2013).
pKi: −log10 of the molar value.

The molecules below were run against T1, human GABA A α5β3γ2 receptor (Homo sapiens, UniProt P18507+P31644) (assay: [3H]flumazenil competition binding to HEK293 cells expressing human GABA A receptors). Details: competition for [3H]flumazenil (0.5 nM for α5); HEK293 cells expressing human (transiently transfected) receptors; means of two determinations; read-out: hKi GABA Aα5.
T1 construct: expressed in transfected cells; host or cells: HEK293 (transiently transfected), membranes
Protocol: The affinity of compounds at GABA A receptor subtypes was measured by competition for [^3H]flumazenil (85 Ci/mmol; Roche) binding to HEK293 cells expressing rat (stably transfected) or human (transiently transfected) receptors of composition α1β3γ2, α2β3γ2, α3β3γ2 and α5β3γ2.
Cell pellets were suspended in Krebs-tris buffer (4.8 mM KCl, 1.2 mM CaCl2, 1.2 mM MgCl2, 120 mM NaCl, 15 mM Tris; pH 7.5; binding assay buffer), homogenized by polytron for ca. 20 sec on ice and centrifuged for 60 min at 4° C. (50000 g; Sorvall, rotor: SM24=20000 rpm). The cell pellets were resuspended in Krebs-tris buffer and homogenized by polytron for ca. 15 sec on ice. Protein was measured (Bradford method, Bio-Rad) and aliquots of 1 mL were prepared and stored at −80° C.
Radioligand binding assays were carried out in a volume of […] (96-well plates) which contained […] of cell membranes, [^3H]flumazenil at a concentration of 1 nM for α1, α2, α3 subunits and 0.5 nM for α5 subunits and the test compound in the range of […]. Nonspecific binding was defined by 10^−5 M diazepam and typically represented less than 5% of the total binding. Assays were incubated to equilibrium for 1 hour at 4° C. and harvested onto GF/C uni-filters (Packard) by filtration using a Packard harvester and washing with ice-cold wash buffer (50 mM Tris; pH 7.5). After drying, filter-retained radioactivity was detected by liquid scintillation counting. Ki values were calculated using Excel-Fit (Microsoft) and are the means of two determinations.
Representative test results, obtained by the above described assay measuring binding affinity to HEK293 cells expressing human (h) receptors, are shown in table 1 below.

SMILES	pKi
CCCCc1noc(C)c1CNc1ccc(C(=O)NC2CCOCC2)cn1 [Example 44, 6-[((3-Butyl-5-methyl-isoxazol-4-yl)methyl)-amino]-N-(tetrahydro-pyran-4-yl)-nicotinamide]	7.17
CCCc1noc(C)c1COc1ccc(C(=O)NC(C)C)cn1 [Example 1, N-Isopropyl-6-((5-methyl-3-propyl-isoxazol-4-yl)methoxy)-nicotinamide]	7.34
CCCCc1noc(C)c1COc1ccc(C(=O)Nc2ccn(C)n2)cn1 [Example 24, 6-((3-Butyl-5-methyl-isoxazol-4-yl)methoxy)-N-(1-methyl-1H-pyrazol-3-yl)-nicotinamide]	7.97
Cc1onc(C2CCOCC2)c1COc1ccc(C(=O)NC(C)C)cn1 [Example 37, N-Isopropyl-6-[(5-methyl-3-(tetrahydro-pyran-4-yl)-isoxazol-4-yl)methoxy]-nicotinamide]	7.66
CCCCc1noc(C)c1CNc1ccc(C(=O)NC(C)CO)cn1 (centres unmarked) [Example 43, 6-[((3-Butyl-5-methyl-isoxazol-4-yl)methyl)-amino]-N-(2-hydroxy-1-methyl-ethyl)-nicotinamide]	7.11
CCCCc1noc(C)c1COc1ccc(C(=O)NCCO)cn1 [Example 10, 6-((3-Butyl-5-methyl-isoxazol-4-yl)methoxy)-N-(2-hydroxy-ethyl)-nicotinamide]	8.24
Cc1onc(N2CCCC2)c1COc1ccc(C(=O)NC(C)C)cn1 [Example 40, N-Isopropyl-6-((5-methyl-3-pyrrolidin-1-yl-isoxazol-4-yl)methoxy)-nicotinamide]	8.40
CCCCc1noc(C)c1COc1ccc(C(=O)N[C@@H](C)C(F)(F)F)cn1 [Example 20, 6-((3-Butyl-5-methyl-isoxazol-4-yl)methoxy)-N—((S)-2,2,2-trifluoro-1-methyl-ethyl)-nicotinamide]	8.12
CCCCc1nocc1COc1ccc(C(=O)NCC(F)(F)F)cn1 [Example 26, 6-((3-Butyl-isoxazol-4-yl)methoxy)-N-(2,2,2-trifluoro-ethyl)-nicotinamide]	7.35
CCCCc1noc(C)c1COc1ccc(C(=O)NC(C)CO)cn1 (single isomer, unassigned; (+)) [Example 11, (+)-6-((3-Butyl-5-methyl-isoxazol-4-yl)methoxy)-N-(2-hydroxy-1-methyl-ethyl)-nicotinamide]	8.14
Cc1onc(C2CCOCC2)c1COc1ccc(C(=O)N[C@@H](C)CO)cn1 [Example 38, N—((S)-2-Hydroxy-1-methyl-ethyl)-6-[(5-methyl-3-(tetrahydro-pyran-4-yl)-isoxazol-4-yl)methoxy]-nicotinamide]	7.38
Cc1onc(C2CCCCC2)c1COc1ccc(C(=O)NC2CC2)cn1 [Example 32, 6-((3-Cyclohexyl-5-methyl-isoxazol-4-yl)methoxy)-N-cyclopropyl-nicotinamide]	8.33
CCCCc1noc(C)c1COc1ccc(C(=O)N[C@H]2CCOC2)cn1 [Example 16, 6-((3-Butyl-5-methyl-isoxazol-4-yl)methoxy)-N-(S)-tetrahydro-furan-3-yl-nicotinamide]	8.19
CCCC(C)c1noc(C)c1COc1ccc(C(=O)NC(C)C)cn1 (centres unmarked) [Example 29, N-Isopropyl-6-[(5-methyl-3-(1-methyl-butyl)-isoxazol-4-yl)methoxyl]-nicotinamide]	7.15
Cc1onc(C2CCCCC2)c1COc1ccc(C(=O)NC(C)C)cn1 [Example 31, 6-((3-Cyclohexyl-5-methyl-isoxazol-4-yl)methoxy)-N-isopropyl-nicotinamide]	8.37
Cc1onc(CCC(F)(F)F)c1COc1ccc(C(=O)NC2CCOCC2)cn1 [Example 4, 6-[(5-Methyl-3-(3,3,3-trifluoro-propyl)-isoxazol-4-yl)methoxy]-N-(tetrahydro-pyran-4-yl)-nicotinamide]	7.40
Cc1onc(N2CCCC2)c1COc1ccc(C(=O)NC2CCOCC2)cn1 [Example 41, 6-((5-methyl-3-pyrrolidin-1-yl-isoxazol-4-yl)methoxy)-N-(tetrahydro-pyran-4-yl)-nicotinamide]	8.41
CCCCc1noc(C)c1COc1ccc(C(=O)NC2CCOC2)cn1 (centres unmarked) [Example 14, 6-((3-Butyl-5-methyl-isoxazol-4-yl)methoxy)-N-(tetrahydro-furan-3-yl)-nicotinamide]	8.30
CCCCc1noc(C)c1COc1ccc(C(=O)NC(C)CO)cn1 (racemic) [Example 9, Rac-6-((3-Butyl-5-methyl-isoxazol-4-yl)methoxy)-N-(2-hydroxy-1-methyl-ethyl)-nicotinamide]	8.51

SMILES	pKi
CCCCc1noc(C)c1COc1ccc(C(=O)NC2(C)CC2)cn1 [Example 21, 6-((3-Butyl-5-methyl-isoxazol-4-yl)methoxy)-N-(1-methyl-cyclopropyl)-nicotinamide]	7.94
Cc1onc(C2CCCCC2)c1COc1ccc(C(=O)NC2CCOCC2)cn1 [Example 33, 6-((3-Cyclohexyl-5-methyl-isoxazol-4-yl)methoxy)-N-(tetrahydro-pyran-4-yl)-nicotinamide]	8.28
CCCCc1noc(C)c1COc1ccc(C(=O)NC2CC2)cn1 [Example 6, 6-((3-Butyl-5-methyl-isoxazol-4-yl)methoxy)-N-cyclopropyl-nicotinamide]	8.19
CCCCc1noc(C)c1COc1ccc(C(=O)N2CCC2)cn1 [Example 22, Azetidin-1-yl-[6-((3-butyl-5-methyl-isoxazol-4-yl)methoxy)-pyridin-3-yl]-methanone]	7.46
CCCCc1noc(C)c1CNc1ccc(C(=O)NC(C)C)cn1 [Example 42, 6-[((3-Butyl-5-methyl-isoxazol-4-yl)methyl)-amino]-N-isopropyl-nicotinamide]	7.24
CCCCc1noc(C)c1COc1ccc(C(=O)NCC(C)(C)O)cn1 [Example 13, 6-((3-Butyl-5-methyl-isoxazol-4-yl)methoxy)-N-(2-hydroxy-2-methyl-propyl)-nicotinamide]	8.04
Cc1onc(CCC(F)(F)F)c1COc1ccc(C(=O)NC(C)C)cn1 [Example 3, N-Isopropyl-6-[(5-methyl-3-(3,3,3-trifluoro-propyl)-isoxazol-4-yl)methoxy]-nicotinamide]	7.31
CCCc1noc(C)c1COc1ccc(C(=O)NC2CCOCC2)cn1 [Example 2, 6-((5-Methyl-3-propyl-isoxazol-4-yl)methoxy)-N-(tetrahydro-pyran-4-yl)-nicotinamide]	7.29
Cc1onc(C2CCCC2)c1COc1ccc(C(=O)NC(C)C)cn1 [Example 30, 6-((3-Cyclopentyl-5-methyl-isoxazol-4-yl)methoxy)-N-isopropyl-nicotinamide]	7.42
CCCCc1nocc1COc1ccc(C(=O)N[C@@H](C)CO)cn1 [Example 28, 6-((3-Butyl-isoxazol-4-yl)methoxy)-N—((S)-2-hydroxy-1-methyl-ethyl)-nicotinamide]	7.44
Cc1onc(C2CCCCC2)c1COc1ccc(C(=O)NC(C)CO)cn1 (centres unmarked) [Example 36, 6-((3-Cyclohexyl-5-methyl-isoxazol-4-yl)methoxy)-N-(2-hydroxy-1-methyl-ethyl)-nicotinamide]	8.43
CCCCc1noc(C)c1COc1ccc(C(=O)Nc2cnn(C)c2)cn1 [Example 23, 6-((3-Butyl-5-methyl-isoxazol-4-yl)methoxy)-N-(1-methyl-1H-pyrazol-4-yl)-nicotinamide]	8.66
CCCCc1noc(C)c1COc1ccc(C(=O)N[C@@H](C)CO)cn1 [Example 12, (−)-6-((3-Butyl-5-methyl-isoxazol-4-yl)methoxy)-N-(2-hydroxy-1-methyl-ethyl)-nicotinamide]	8.42
CCCCc1nocc1COc1ccc(C(=O)NC2CCOCC2)cn1 [Example 27, 6-((3-Butyl-isoxazol-4-yl)methoxy)-N-(tetrahydro-pyran-4-yl)-nicotinamide]	7.28
CCCCc1noc(C)c1COc1ccc(C(=O)NC(CO)CO)cn1 [Example 15, 6-((3-Butyl-5-methyl-isoxazol-4-yl)methoxy)-N-(2-hydroxy-1-hydroxymethyl-ethyl)-nicotinamide]	8.24
Cc1onc(C2CCCCC2)c1COc1ccc(C(=O)NCCO)cn1 [Example 34, 6-((3-Cyclohexyl-5-methyl-isoxazol-4-yl)methoxy)-N-(2-hydroxy-ethyl)-nicotinamide]	8.24
CCCCc1noc(C)c1COc1ccc(C(=O)NC(C)C)cn1 [Example 5, 6-((3-Butyl-5-methyl-isoxazol-4-yl)methoxy)-N-isopropyl-nicotinamide]	8.39
CCCCc1noc(C)c1COc1ccc(C(=O)N[C@@H](C)C(F)(F)F)cn1 [Example 19, 6-((3-Butyl-5-methyl-isoxazol-4-yl)methoxy)-N—((S)-2,2,2-trifluoro-1-methyl-ethyl)-nicotinamide]	8.08
CCCCc1nocc1COc1ccc(C(=O)NC(C)C)cn1 [Example 25, 6-((3-Butyl-isoxazol-4-yl)methoxy)-N-isopropyl-nicotinamide]	7.39
